Assay results reported in patent US7067113B2, “Methods for identifying compounds for regulating muscle mass or function using dopamine receptors” (The Procter & Gamble Company, priority 2002, dated 2006).

Columns and labels:
[1] = tested on: casting-induced (disuse) atrophy in mice; test: leg casting disuse atrophy model; format: in vivo, mouse; details: male mice
Protocol: Legend: A—physiological saline (control); B—SKF 81297 (0.3 mg/kg)+theophylline; C—SKF 81297 (1.0 mg/kg)+theophylline; D—SKF 81297 (3.0 mg/kg)+theophylline; *−p≦0.05 compared to saline. Following casting of the right hind leg, male mice were injected subcutaneously in the midscapular region twice daily, with SKF 81297 or vehicle control (physiological saline) for ten days at the daily delivered dose indicated. SKF 81297 was co-administered with twice daily intra-peritoneal dosing of the phosphodiesterase inhibitor theophylline (30 mg/kg). On day ten, the tibialis anterior muscle was removed and weighed to determine the degree of atrophy.
Legend: A—physiological saline (control); B—fenoldopam (0.3 mg/kg); C—fenoldopam (1.0 mg/kg); D—fenoldopam (3.0 mg/kg); *−p≦0.05 compared to saline. Following casting of the right hind leg, male mice were injected subcutaneously in the midscapular region twice daily, with fenoldopam or vehicle control (physiological saline) for ten days at the daily delivered dose indicated. On day ten, the medial gastrocnemius muscle was removed and weighed to determine the degree of atrophy.
The leg casting disuse atrophy model involves casting one hind leg of an animal from the knee down through the foot. Typically, muscle mass is reduced 20–40% after ten days of casting. Following casting, test compounds are administered by injection or by continuous infusion via implantation of an osmotic minipump (e.g., Alzet, Palo Alto, Calif.) to determine their effect on leg casting induced skeletal muscle atrophy. At various times following leg casting, the extent of atrophy in the affected muscles is analyzed as described above for the denervation model.

[2] = tested on: mouse sciatic nerve denervation atrophy model; test: mouse sciatic nerve denervation atrophy model; format: in vivo; details: male mice
Protocol: Legend: A—physiological saline (control); B—SKF 81297 (0.3 mg/kg)+theophylline; C—SKF 81297 (1.0 mg/kg)+theophylline; D—SKF 81297 (3.0 mg/kg)+theophylline. *−p≦0.05 compared to saline. Following denervation of the right sciatic nerve, male mice were injected subcutaneously in the midscapular region twice daily with SKF 81297, at the doses indicated above or vehicle control (physiological saline) for nine days. SKF 81297 was co-administered with twice daily intra-peritoneal dosing of the phosphodiesterase inhibitor theophylline (30 mg/kg). On day nine, the tibialis anterior and medial gastrocnemius muscles were removed and weighed to determine the degree of atrophy.
The sciatic nerve denervation atrophy model involves anesthetizing the animal followed by the surgical removal of a short segment of either the right or left sciatic nerve, e.g., in mice the sciatic nerve is isolated approximately at the midpoint along the femur and a 3–5 mm segment is removed. This denervates the lower hind limb musculature resulting in atrophy of these muscles. Typically, innervation to the biceps femoris is left intact to provide satisfactory motion of the knee for virtually normal ambulation. Typically, in untreated animals, muscle mass of the denervated muscles is reduced 30–50% ten days following denervation. Following denervation, test compounds are administered e.g., by injection or by continuous infusion, e.g., via implantation of an osmotic minipump (e.g., Alzet, Palo Alto, Calif.), to determine their effect on denervation induced skeletal muscle atrophy. At various times following denervation, the animals are euthanized and lower leg muscles are dissected rapidly from both the denervated and nondenervated legs, the muscles, cleaned of tendons and connective tissue, are weighed. The extent of atrophy in the affected muscles is analyzed, for example, by measuring muscle mass, muscle cross-sectional area, myofiber cross-sectional area or contractile protein content.

Compound: Oc1cc2c(c(Cl)c1O)CCNCC2c1ccccc1 (stereo not shown) [SKF 81297, 6-chloro-7,8-dihydroxyl-1-phenyl-2,3,4,5-tetrahydro-1H-3-benzazepine]
- disuse-induced atrophy of the tibialis anterior muscle (muscle weight) ([1]; right hind leg casted, s.c. twice daily for ten days, 0.3, 1.0, 3.0 mg/kg, + theophylline 30 mg/kg i.p. twice daily, FIG. 2): inhibits
- hypertrophy of the tibialis anterior muscles of the non-casted leg ([1]; s.c. twice daily for ten days, + theophylline 30 mg/kg i.p., FIG. 2): statistically significant hypertrophy
- denervation-induced atrophy of the tibialis anterior muscle (muscle weight) ([2]; s.c. twice daily for nine days, 0.3, 1.0, 3.0 mg/kg, + theophylline 30 mg/kg i.p. twice daily, FIG. 1A): inhibits
- denervation-induced atrophy of the medial gastrocnemius muscle (muscle weight) ([2]; s.c. twice daily for nine days, 0.3, 1.0, 3.0 mg/kg, + theophylline 30 mg/kg i.p. twice daily, FIG. 1B): inhibits
- hypertrophy in the normal (non-denervated) tibialis anterior muscle ([2]; s.c. twice daily for nine days, + theophylline 30 mg/kg i.p., FIG. 1A): induces hypertrophy
- hypertrophy in the normal (non-denervated) medial gastrocnemius muscle ([2]; s.c. twice daily for nine days, + theophylline 30 mg/kg i.p., FIG. 1B): induces hypertrophy

Compound: Oc1ccc(C2CNCCc3c2cc(O)c(O)c3Cl)cc1 (stereo not shown) [Fenoldopam, 6-chloro-2,3,4,5-tetrahydro-1-(4-hydroxyphenyl)-[1H]-3-benzazepine-7,8-diol]
- disuse-induced atrophy of the medial gastrocnemius muscle (muscle weight) ([1]; right hind leg casted, s.c. twice daily for ten days, 0.3, 1.0, 3.0 mg/kg, FIG. 3): inhibits
